The source of these data is patent EP4721753A1, “PHARMACEUTICAL COMPOSITION FOR PREVENTING OR TREATING CORONAVIRUS INFECTIOUS DISEASES COMPRISING CELL-PERMEABLE PEPTIDE-NUCLEIC ACID OLIGOMER AS ACTIVE INGREDIENT” (GiftedMS Co., Ltd., priority 2023, dated 2024).

Common to all, as to assay type: cell-based
For assay [1], the system named is HCoV-OC43. In words: qRT-PCR evaluation of antiviral efficacy (viral RNA level in culture supernatant), HCT8 cells infected with HCoV-OC43. As to conditions: 1 µM PNA oligomer; HCT8 cells infected with HCoV-OC43 at 500 TCID50; viral RNA from cell supernatant on Day 3 after infection. As to the method: In order to analyze the level of viral RNA in viral particles present in a virus culture solution to determine how well the constructed PNA oligomer-based drugs inhibit viral genetic replication, qRT-PCR was performed.
Specifically, HCT8 cells cultured in 6-well plates one day before for drug screening were infected with HCoV-OC43 at a dose of 500 TCID50 using a serum-free RPMI medium. At the same time as infection, the cells were also treated with 1 µM of PNA oligomer, and after 30 minutes, the cells were washed twice with serum-free RPMI, and then the medium was replaced with an RPMI-Complete medium (containing 10% FBS and 1% penicillin/streptomycin) and the cells were treated with 1 µM of PNA oligomer. On Day 3 after infection, viral RNA was extracted from 140 µL of the cell supernatant using a QIAamp viral RNA mini kit manufactured by Qiagen. Virus extraction was performed according to the kit manual. The viral titer of the extracted viral RNA was measured by real-time PCR using a One step TB green kit manufactured by Takara. The primers used are as follows. HCoV-OC43 primer; Nucleoprotein (NP) gene (5'-[…]-3', 5'-[…]-3'). Real-time PCR conditions are as follows. Temperature Stage 1: Reverse transcription 42°C 5 min, 95°C 10 sec, 1 Cycle. Stage 2: PCR reaction 95°C 5 sec, 60°C 34 sec, 35 Cycles. Stage 3: melting curve analysis 95°C 15 sec, 65°C 60 sec, 95°C 15 sec.

In assay [2] the test system is SARS-CoV-2. The conditions noted are these: 1000 nM; Vero cells pre-incubated 2 hours; viral RNA 24 hours after infection.
The test system of assay [3] is SARS-CoV-2 virus. As to conditions: Vero cells, 1000 to 0.49 nM, 2-fold dilution, viral RNA after 24 hours, three repeated experiments.

Where “and” joins values, the source holds several entries; their conditions need not be identical. Equal entries are not always repeated. Where two headings read alike, the source gives them in different places.

For `CC(C)(C)[C@H](NC(=O)C(F)(F)F)C(=O)N1C[C@H]2[C@@H]([C@H]1C(=O)N[C@H](C#N)C[C@@H]1CCNC1=O)C2(C)C` [PF07321332, Nirmatrelvir], the Inhibition% in assay [1] worked out at 97.98%.
For the compound Paxlovid, the Inhibition% in assay [2] was determined as 96.03%. Besides, the IC50 in assay [3] was 317 nM and 328 nM and 464 nM; in assay [3] (listed as Paxlovid (P.C)-1) it was 317 nM; in assay [3] (listed as Paxlovid (P.C)-2), 328 nM; in assay [3] (listed as Paxlovid (P.C)-3), 464 nM.
